EC50 data for 20 compounds are collected here from patent US9416124B2, “Substituted 2-alkyl-1-OXO-N-phenyl-3-heteroaryl-1,2,3,4-tetrahydroisoquinoline-4-carboxamides for antimalarial therapies” (ST. JUDE CHILDREN'S RESEARCH HOSPITAL, priority 2011, dated 2016).

Each structure is given as a SMILES string.

The first assay concerns P. falciparum 3D7. The experiment in a line: P. falciparum drug susceptibility assay (3D7). The note with it: Plasmodium falciparum; 3D7 strain; racemate unless indicated; read-out: 3D7_EC50. In kind it is cell-based, Plasmodium falciparum. On the procedure:
Parasites were grown as previously described in Mallari, J. P., Guiguemde, W. A., and Guy, R. K., Antimalarial activity of thiosemicarbazones and purine derived nitriles, Bioorg Med Chem Lett 19 (13), 3546 (2009). […] DMSO inhibitor stock solutions were pin-transferred (V&P Scientific) into the assay plate and background fluorescence was measured in both relevant channels (485 nm /535 nm, 612 nm /665 nm) in an Envision plate reader (PerkinElmer). Then 20 μl of a synchronized culture suspension (1% rings, 10% hematocrit) were added per well, thus making a final hematocrit and parasitemia of 5% and 1% respectively. Assay plates were incubated for 72 h and parasitemia was determined based on a modified protocol. (Smilkstein, M. et al., Simple and inexpensive fluorescence-based technique for high-throughput antimalarial drug screening. Antimicrob Agents Chemother 48 (5), 1803 (2004)). Briefly, 5 μl of mixed DNA dye solution in RPMI (5X SYBR Green I, 1 μM YOYO-3, 1% v/v Triton X-100, 1 mg/ml saponin) were added per well, assay plates were shaken for 30 s at 2000 rpm, incubated in the dark for 4 h, then read as previously described.
For `CC(C)CN1C(=O)c2ccccc2[C@H](C(=O)Nc2cccc(OC(F)(F)F)c2)[C@H]1c1cn[nH]c1` (racemic) [Example 25, 2-isobutyl-1-oxo-3-(1H-pyrazol-4-yl)-N-(3-(trifluoromethoxy)phenyl)-1,2,3,4-tetrahydroisoquinoline-4-carboxamide], the EC50 stood at 11 nM.

As to `CC(C)CN1C(=O)c2ccc(F)cc2[C@H](C(=O)Nc2cc(F)cc(C#N)c2)[C@H]1c1cnn(C)c1` (racemic) [Example 48, N-(3-cyano-5-fluorophenyl)-6-fluoro-2-isobutyl-3-(1-methyl-1H-pyrazol-4-yl)-1-oxo-1,2,3,4-tetrahydroisoquinoline-4-carboxamide], the EC50 was determined as 19 nM.

With `CC(C)CN1C(=O)c2cc(F)ccc2[C@H](C(=O)Nc2ccc(F)c(C#N)c2)[C@H]1c1cnn(C)c1` (racemic) [Example 45, N-(3-cyano-4-fluorophenyl)-7-fluoro-2-isobutyl-3-(1-methyl-1H-pyrazol-4-yl)-1-oxo-1,2,3,4-tetrahydroisoquinoline-4-carboxamide], the EC50 is 20 nM.

Take `CC(C)CN1C(=O)c2ccccc2[C@H](C(=O)Nc2cccc(OC(F)(F)F)c2)[C@H]1c1cccnc1` (racemic) [Example 29, 2-isobutyl-1-oxo-3-(pyridin-3-yl)-N-(3-(trifluoromethoxy)phenyl)-1,2,3,4-tetrahydroisoquinoline-4-carboxamide]: the EC50 stood at 25 nM.

Regarding `O=C(Nc1cc(F)cc(OC(F)(F)F)c1)[C@H]1c2ccccc2C(=O)N(CC(F)(F)F)[C@@H]1c1cccnc1` (racemic) [Example 42, N-(3-fluoro-5-(trifluoromethoxy)phenyl)-1-oxo-3-(pyridin-3-yl)-2-(2,2,2-trifluoroethyl)-1,2,3,4-tetrahydroisoquinoline-4-carboxamide], the EC50 is 144 nM.

With `CC(C)CN1C(=O)c2cc(F)ccc2[C@H](C(=O)Nc2cc(Cl)cc(C#N)c2)[C@H]1c1cnn(C)c1` (racemic) [Example 46, N-(3-chloro-5-cyanophenyl)-7-fluoro-2-isobutyl-3-(1-methyl-1H-pyrazol-4-yl)-1-oxo-1,2,3,4-tetrahydroisoquinoline-4-carboxamide], the EC50 was determined as 3 nM.

In the case of `Cn1cc([C@@H]2[C@@H](C(=O)Nc3cc(Cl)cc(C#N)c3)c3ccccc3C(=O)N2CC(F)(F)F)cn1` (racemic) [Example 10, N-(3-chloro-5-cyanophenyl)-3-(1-methyl-1H-pyrazol-4-yl)-1-oxo-2-(2,2,2-trifluoroethyl)-1,2,3,4-tetrahydroisoquinoline-4-carboxamide], the EC50 was 6 nM.

Turning to `O=C(Nc1cccc(OC(F)(F)F)c1)[C@H]1c2ccccc2C(=O)N(CC(F)(F)F)[C@@H]1c1cn[nH]c1` (racemic) [Example 26, 1-oxo-3-(1H-pyrazol-4-yl)-2-(2,2,2-trifluorocthyl)-N-(3-(trifluoromethoxy)phenyl)-1,2,3,4-tetrahydroisoquinoline-4-carboxamide], the EC50 was found to be 19 nM.

Regarding `CC(C)CN1C(=O)c2ccccc2[C@H](C(=O)Nc2cc(F)cc(C#N)c2)[C@H]1c1cccnc1` (racemic) [Example 23, N-(3-cyano-5-fluorophenyl)-2-isobutyl-1-oxo-3-(pyridin-3-yl)-1,2,3,4-tetrahydroisoquinoline-4-carboxamide], the EC50 turned out to be 20 nM.

Regarding `Cn1cc([C@@H]2[C@@H](C(=O)Nc3ccc(F)c(C#N)c3)c3ccccc3C(=O)N2CC(F)(F)F)cn1` (racemic) [Example 4, N-(3-cyano-4-fluorophenyl)-3-(1-methyl-1H-pyrazol-4-yl)-1-oxo-2-(2,2,2-trifluoroethyl)-1,2,3,4-tetrahydroisoquinoline-4-carboxamide], the EC50 was determined as 24 nM.

On to `N#Cc1cc(NC(=O)[C@H]2c3ccccc3C(=O)N(CC(F)(F)F)[C@@H]2c2cn[nH]c2)ccc1F` (racemic) [Example 2, N-(3-cyano-4-fluorophenyl)-1-oxo-3-(1H-pyrazol-4-yl)-2-(2,2,2-trifluoroethyl)-1,2,3,4-tetrahydroisoquinoline-4-carboxamide], for which the EC50 is 41 nM.

Consider `N#Cc1cc(NC(=O)[C@H]2c3cc(F)c(F)cc3C(=O)N(CC(F)(F)F)[C@@H]2c2cn[nH]c2)ccc1F` (racemic) [Example 59], for which the EC50 was 7 nM.

In the case of `O=C(Nc1ccc(F)c(OC(F)(F)F)c1)[C@H]1c2ccccc2C(=O)N(CC(F)(F)F)[C@@H]1c1cn[nH]c1` (racemic) [Example 32, N-(4-fluoro-3-(trifluoromethoxy)phenyl)-1-oxo-3-(1H-pyrazol-4-yl)-2-(2,2,2-trifluoroethyl)-1,2,3,4-tetrahydroisoquinoline-4-carboxamide], the EC50 was found to be 22 nM.

Take `N#Cc1cc(NC(=O)[C@H]2c3ccccc3C(=O)N(CC(F)(F)F)[C@@H]2c2cccnc2)ccc1F` (racemic) [Example 6, N-(3-cyano-4-fluorophenyl)-1-oxo-3-(pyridin-3-yl)-2-(2,2,2-trifluoroethyl)-1,2,3,4-tetrahydroisoquinoline-4-carboxamide]: the EC50 amounted to 54 nM.

In the case of `COc1ccc2c(c1)C(=O)N(CC(C)C)[C@H](c1cccnc1)[C@H]2C(=O)Nc1ccc(F)c(C#N)c1` (racemic) [Example 53, N-(3-cyano-4-fluorophenyl)-2-isobutyl-7-methoxy-1-oxo-3-(pyridin-3-yl)-1,2,3,4-tetrahydroisoquinoline-4-carboxamide], the EC50 was found to be 150 nM.

On to `N#Cc1ccc([C@@H]2[C@@H](C(=O)Nc3ccc(F)c(C#N)c3)c3ccccc3C(=O)N2CC2CC2)s1` (racemic) [Example 54, N-(3-cyano-4-fluorophenyl)-3-(5-cyanothiophen-2-yl)-2-(cyclopropylmethyl)-1-oxo-1,2,3,4-tetrahydroisoquinoline-4-carboxamide], for which the EC50 came out at 11 nM.

For the compound `CC(C)CN1C(=O)c2ccccc2[C@H](C(=O)Nc2cc(F)cc(C#N)c2)[C@H]1c1cn[nH]c1` (racemic) [Example 19, N-(3-cyano-5-fluorophenyl)-2-isobutyl-1-oxo-3-(1H-pyrazol-4-yl)-1,2,3,4-tetrahydroisoquinoline-4-carboxamide], the EC50 turned out to be 4 nM.

On to `O=C(Nc1cccc(OC(F)(F)F)c1)[C@H]1c2ccccc2C(=O)N(CC(F)(F)F)[C@@H]1c1cccnc1` (racemic) [Example 30, 1-oxo-3-(pyridin-3-yl)-2-(2,2,2-trifluoroethyl)-N-(3-(trifluoromethoxy)phenyl)-1,2,3,4-tetrahydroisoquinoline-4-carboxamide], for which the EC50 came to 25 nM.

Regarding `CC(C)CN1C(=O)c2ccccc2[C@H](C(=O)Nc2ccc(F)c(OC(F)(F)F)c2)[C@H]1c1cccnc1` (racemic) [Example 35, N-(4-fluoro-3-(trifluoromethoxy)phenyl)-2-isobutyl-1-oxo-3-(pyridin-3-yl)-1,2,3,4-tetrahydroisoquinoline-4-carboxamide], the EC50 stood at 63 nM.

Staying with this assay, now noted: separated enantiomers, assayed as described in 4a; listed as 2 l; read-out: Potency (nM, 3D7 strain).
As for `N#Cc1cc(NC(=O)C2c3ccccc3C(=O)N(CC(F)(F)F)C2c2cn[nH]c2)ccc1F` (single isomer, unassigned) [Example 2 l-isomer], the EC50 is 303 nM.
